Experiments:
[1] = HAP crystallisation induction period (synergy with other treatments); type: physicochemical
Method: Objective: to evaluate the potential synergies between the effects of IP6 and the effects of other treatments for renal impairment.
Experimental: hydroxyapatite (HAP) was crystallised by mixing appropriate concentrations of calcium and phosphate at pH 7.4. The effect of cinacalcet and sevelamer was simulated by suitably modifying the calcium and phosphate concentrations. The induction period (time required for HAP to begin to crystallise) was recorded as the analytical signal.

[2] = tested on: vit D-induced cardiovascular calcification; experiment: Inhibition of vit D-induced (300,000 IU/kg x3) cardiovascular calcification by s.c. IP6; type: in vivo, SD rats
Method: Objective: to evaluate the efficacy of s.c. IP6 for inhibiting vit D-induced cardiovascular calcification in rats. Experimental: male SD rats were divided into 9 groups. Two of said groups (sham and control groups) received s.c. saline 2 ml/kg; 6 groups received s.c. […] One group was treated with a s.c. Alzet pump loaded with 200 mg/ml IP6. Calcification was induced by oral administration of 300,000 IU/kg vitamin D (2 ml/kg) for 3 days starting on treatment day 3. […] The calcium content in heart, aorta and kidneys was determined after treatment for 7 days.

[3] = tested on: ECG and serum ionic calcium; experiment: Cardiovascular function after 2 h intravascular infusion of IP6 in conscious dogs (telemetry); type: in vivo; conditions: for peak IP6 level: dogs
Method: Objective: to determine the effects of a non-bolus type administration of IP6 on the electrocardiogram (ECG) and serum ionic calcium concentrations.
Experimental: 4 male dogs were treated with 3, 10 and 30 mg/kg IP6 by infusion for 2 h in a Latin square design. A washout period of one week was performed between doses. ECGs were measured telemetrically at 1 h and 20 minutes prior to infusion and 5, 15, 30, 45 minutes, 1, 2, 6 and 24 h post-infusion. In a second stage, blood samples were taken for PK, for the same doses, at 20 minutes prior to infusion and 5, 15, 30 minutes and 1, 1.5, 2, 3 and 6 h post-infusion. In this case the washout period between doses was 2 days. […]

[4] = Administration of IP6 via the dialysis system (closed circuit, human blood); type: in vitro ADME
Method: Objective: to establish the dialysability of IP6 in human blood using a real dialysis system and the effect thereof on calcium chelation.
Experimental: 1 liter of human blood obtained from patients undergoing therapeutic phlebotomy was introduced into a recipient forming a closed dialysis circuit to simulate a real dialysis. Two experiments were performed (administration pre- and post-dialyser, both in bypass and dialysis mode), administering IP6 to human blood for 20 minutes when outside the recipient (which simulated the animal or human body) and circulating via the dialysis circuit. The recipient containing 1 liter of whole blood at a controlled temperature of 37° C. is connected to the dialysis apparatus to form a closed circuit. The dialysis apparatus will be connected for 1 hour (dialysis fluid flow of 500 ml/min and blood flow of 350 ml/min). Blood samples are collected at different times to determine the IP6 and ionic calcium levels.

[5] = In vitro affinity (adsorption) of IP6 for hydroxyapatite; type: binding
Method: Objective; the objective of this study is to analyse the affinity of IP6 for the target thereof, thereby obtaining a curve for the affinity of IP6 for HAP.
[…] The total quantity of IP6 bound to the surface of the target (HAP) was quantified.
To characterise the behaviour of IP6 binding, the EC50 and Emax for the adsorption thereof on HAP were calculated. This was performed using a non-linear regression model (Log [agonist] vs. response−slope variable; GraphPad Prism software).

[6] = PK profile of IP6 by 4 h intravenous infusion in normal and uraemic rats; type: in vivo, Wistar rats
Method: Objective: to evaluate the PK profile for IP6 in rats with normal kidney function and non-dialysed rats with renal impairment by intravenous infusion.
Experimental: Wistar rats with normal kidney function were treated daily with a dose of 10 or 50 mg/kg IP6 by intravenous fusion over 4 h. Plasma samples were obtained at different timepoints up to 4 hours on day 0. The animals were then treated orally with 600 mg/kg (p.o.) adenine for 10 days to induce renal impairment. The animals were treated with alpha-calcidol (300 ng/kg) on days 11 and 13 and plasma samples were collected at different timepoints up to 4 hours on day 14. The plasma IP6 levels were quantified for both groups.

[7] = PK profile of IP6 s.c. in rats with normal and diminished kidney function; type: in vivo, Wistar rats
Method: Objective: to evaluate the PK profile for rats with normal kidney function and renal impairment. Experimental: a single s.c. dose (10 mg/kg) was administered to rats with normal kidney function. Plasma samples were obtained at different timepoints up to 60 minutes. A different group of Wistar rats received oral treatment with adenine 600 mg/kg (p.o.) for 10 days to induce renal impairment. Alpha-calcidol (300 ng/kg) was administered on days 11 and 13 and plasma samples were collected at different timepoints up to 60 minutes on day 14. The plasma IP6 concentrations were quantified for both groups.

[8] = tested on: serum ionic calcium, ECG and clinical signs; experiment: Cardiovascular function after bolus intravenous IP6 in conscious dogs (telemetry); type: in vivo
Method: Objective: to examine the effects of a bolus-type administration of IP6 in serum ionic calcium, ECG and clinical signs in dogs. Experimental: 4 male dogs, 2 per dose, were injected with 10, 15 and 30 mg/kg. Two washout days were introduced between the different doses. The ECGs were recorded telemetrically. Blood ionic calcium concentrations were determined on different days to the ECG measurements.

[9] = In vitro binding kinetics of IP6 to HAP; conditions: 130 mg HAP
Method: Objective: to analyse the binding rate of IP6 to HAP.
Experimental: 130 mg HAP was incubated (in triplicate) with 7.6 μM IP6, at 37° C., pH 7.4, for different time intervals while stirring continuously.

[10] = tested on: tissue calcification in uraemic animals; experiment: Adenine model, non-bolus intravascular infusion of IP6; type: in vivo, Wistar rats
Method: Objective: to determine the efficacy of IP6 as a non-bolus type administration in the prevention of tissue calcification in uraemic animals.
Experimental: CKD was induced in 2 groups (n=12) of male Wistar rats by oral (p.o.) treatment with adenine (600 mg/kg/day) daily for 10 days. After treatment with adenine, the rats received alpha-calcidol at a dose of 300 ng/kg (3×/week, p.o.) until day 28. From day 0 until sacrifice (day 28), the animals were treated with an intravascular infusion of 50 mg/kg IP6 or saline for 4 hours. After 28 days the aorta and heart were collected and the tissue calcium content determined.

[11] = tested on: vitamin D-induced cardiovascular calcification; experiment: Inhibition of vit D-induced (75,000 IU/kg x5) cardiovascular calcification by intravenous IP6; type: in vivo, Sprague Dawley (SD) rats
Method: Objective: to evaluate the efficacy of intravenous IP6 in inhibiting vitamin D-induced cardiovascular calcification in rats. Experimental: male Sprague Dawley (SD) rats were divided into 7 groups and IP6 was administered intravenously daily for 14 days at a dose of 0, 0.05, 0.1, 0.5, 1, 5 and 10 mg/kg. Calcification was induced by oral administration of 75,000 IU/kg vitamin D on treatment days 3 to 7. Samples were collected. On day 14 the aortas and hears of the animals were collected to quantify calcification.

[12] = Calcium chelation by IP6 in vitro; type: physicochemical; conditions: 2.5 mM calcium in 0.15 M NaCl, pH 7.40
Method: Objective: to evaluate the ionic calcium chelation potential of IP6. Experimental: a 2.5 mM of calcium in NaCl 0.15 M, pH 7.40, was pipetted with increasing concentrations of IP6. The amount of free ionic calcium was measured potentiometrically using a calcium-selective electrode and a potentiometer.

[13] = tested on: tissue calcification in chronic renal impairment model (adenine); experiment: Adenine model, bolus-type s.c. IP6; type: in vivo, Wistar rats; conditions: s.c. bolus 3, 10 and 30 mg/kg, 28 days, adenine rats
Method: Objective: to determine the efficacy of IP6 in the prevention of tissue calcification in an animal model of chronic renal impairment (adenine).
Experimental: CKD was induced in 4 groups (n=12) of male Wistar rats by oral (p.o.) treatment with adenine (600 mg/kg/day) daily for 10 days. After treatment with adenine, the rats received alpha-calcidol at a dose of 300 ng/kg (3×/week, p.o.) until day 28. From day 0 until sacrifice (day 28), the animals were treated with a 2 ml/kg s.c. bolus of 0, 3, 10 and 30 mg/kg IP6. At each treatment, 3 additional animals were included to evaluate the […] for IP6. After 28 days the aorta, heart and right kidney were collected and the tissue calcium content determined.

[14] = tested on: tissue calcification in chronic renal impairment model (5/6 nephrectomised rats); experiment: 5/6 nephrectomy model, IP6 i.v. bolus; type: in vivo, SD rats; conditions: i.v. bolus 1 or 5 mg/kg, 8 weeks
Method: Objective: to determine the efficacy of intravenous IP6 in the prevention of tissue calcification in a chronic renal impairment model (5/6 nephrectomised rats).
Experimental: 48 SD rats were 5/6 nephrectomised by complete right lateral nephrectomy and ⅔ partial nephrectomy of the left kidney. 16 animals per group were treated intravenously (bolus) with 2 ml/kg saline, 1 mg/kg IP6 or 5 mg/kg IP6. The animals received a phosphate-rich diet (1% Ca, 1.2% P) containing 20% lactose. After 8 weeks the aorta, heart and remaining ⅓ kidney were collected and the tissue calcium content determined.

[15] = normal Wistar rats, s.c. 10 mg/kg
[16] = intravascular infusion 50 mg/kg for 4 hours, day 0-28, uraemic rats
[17] = i.v. between 1 and 10 mg/kg daily for 14 days
[18] = without IP6, drug effect simulated by modifying calcium and phosphate concentrations

O=P(O)(O)O[C@H]1[C@H](OP(=O)(O)O)[C@@H](OP(=O)(O)O)[C@H](OP(=O)(O)O)[C@@H](OP(=O)(O)O)[C@H]1OP(=O)(O)O [IP6, inositol hexaphosphate]
induction period of HAP crystallisation ([1]; 11.4 μM IP6, pH 7.4, control 8 minutes): 28 min | combination effect on induction period ([1]; IP6 0-11.4 μM with simulated cinacalcet or sevelamer): clear synergistic effect | efficacy (inhibition of calcification) ([2]; s.c. 60 mg/kg): approximately 60% | efficacy (inhibition of calcification) ([2]; s.c. 100 mg/kg): approximately 60% | minimum dose that produced a significant effect on calcification ([2]; s.c., aorta): 10 mg/kg | peak IP6 level ([3]; 3 mg/kg infusion 2 h): 27 µM | peak IP6 level ([3]; 10 mg/kg infusion 2 h): 150 µM | peak IP6 level ([3]; 30 mg/kg infusion 2 h): 482 µM | state of health, weight, cardiorespiratory function, ECG, body temperature, total and free potassium in blood ([3]; infusion for 2 h, 3, 10 and 30 mg/kg, any dose): relatively unaffected | overall effects on dogs ([3]; infusion of 3, 10 and 30 mg/kg for 2 h): no negative effects | dialysability of IP6 ([4]; administration via dialysis line for 20 minutes): not lost via the dialysis membrane | effect on free calcium ([4]; apparatus in bypass mode): chelates (sequesters) free calcium | effect on ionic calcium ([4]; apparatus in dialysis mode): ionic calcium levels are restored | Emax for adsorption on HAP (saturation) [5]: 6.42 mg/g | maximum adsorption of IP6 on the HAP surface ([5]; 300 mg HAP, 7.6 μM IP6, 8 hours): 4.8 mg | IP6 concentration at saturation of adsorption on HAP ([5]; 37° C., pH 7.4): ≥ 7.6 µM | peak plasma concentration ([6]; normal rats, 10 mg/kg i.v. infusion over 4 h): 8.4 µM | peak plasma concentration ([6]; normal rats, 50 mg/kg i.v. infusion over 4 h): 68.4 µM | peak plasma concentration ([6]; uraemic rats, 10 mg/kg i.v. infusion over 4 h): 2.8 µM | peak plasma concentration ([6]; uraemic rats, 50 mg/kg i.v. infusion over 4 h): 24.6 µM | time approximately constant plasma concentration maintained ([6]; uraemic rats, 50 mg/kg infusion, from hour 1 to hour 4): 3 h | duration of measurable plasma levels [7, 15]: at least 30 minutes | peak plasma concentration [7, 15]: 7.4 µM | time of peak concentration post-administration [7, 15]: 15 min | metabolites detected ([7]; plasma, rats): Lower inositol phosphates (IP5, IP4, IP3, IP2, IP1) and inositol | peak plasma concentration ([7]; uraemic rats (adenine), s.c. 10 mg/kg): 1.8 µM | ECG findings ([8]; i.v. bolus above 15 mg/kg, becoming significant above 30 mg/kg): mild tachycardia and prolonged QTc interval | decrease in ionic calcium ([8]; i.v. bolus, correlated with prolonged QTc): 30% | time to adsorption maximum ([9]; 7.6 μM IP6, 37° C., pH 7.4): 60 min | fraction of maximum binding achieved ([9]; after 5 minutes, 7.6 μM IP6): Around 80% | reduction in average calcification in the aorta [10, 16]: 80% | reduction in average calcification in the heart [10, 16]: 85% | reduction of plasma IP6 levels by the end of the experiment ([10]; uraemic rats, due to high metabolic rate): 90% | effect on mineral content of the aorta and heart ([11]; i.v. 0.05 to 0.5 mg/kg daily for 14 days): did not affect | reduction of calcification in aorta [11, 17]: up to 60% | reduction of calcification in heart [11, 17]: ≤ 68% | IP6 concentration at saturation of calcium chelation [12]: 3788 µM | IP6 concentration with significant ionic calcium chelation [12]: about 379 μM | calcification inhibition (aorta, heart, right kidney) [13]: no evidence of calcification inhibition | calcification inhibition (aorta, heart, remaining kidney) [14]: no evidence of calcification inhibition

C[C@@H](NCCCc1cccc(C(F)(F)F)c1)c1cccc2ccccc12 [cinacalcet, reference compound]
induction period of HAP crystallisation [1, 18]: 14 min

O=P([O-])([O-])OP(=O)([O-])[O-].[Na+].[Na+].[Na+].[Na+] [pyrophosphate, sodium pyrophosphate, reference compound]
efficacy on calcification ([2]; s.c., at higher doses than IP6): good efficacy

sevelamer [reference compound]
induction period of HAP crystallisation [1, 18]: 15 min

Source: patent publication US10010559B2, “Use of derivatives containing C-O-P bonds in patients with kidney failure” (LABORATORIOS SANIFIT, S.L., priority 2013, dated 2018)
